Test results taken from patent publication US10981873B2 (priority 2016, dated 2021).

What was measured:
[1] = tested on: Botulinum toxin type A (BoNT/A); parameters: species or system Balb/c mice; conditions: mouse, in vivo
[2] = tested on: Botulinum toxin type B (BoNT/B); parameters: species or system Balb/c mice; conditions: mouse, in vivo
[3] = biological target: Botulinum toxin type A endopeptidase (BoNT/A-LC) (Clostridium botulinum, UniProt P0DPI0); type: biochemical
[4] = biological target: Botulinum toxin type B endopeptidase (BoNT/B-LC) (Clostridium botulinum, UniProt P10844); type: biochemical
N2a cells = conditions: cited from earlier work

Chain of Botulinum toxin type A endopeptidase (BoNT/A-LC) (P0DPI0 2-448 limits assumed): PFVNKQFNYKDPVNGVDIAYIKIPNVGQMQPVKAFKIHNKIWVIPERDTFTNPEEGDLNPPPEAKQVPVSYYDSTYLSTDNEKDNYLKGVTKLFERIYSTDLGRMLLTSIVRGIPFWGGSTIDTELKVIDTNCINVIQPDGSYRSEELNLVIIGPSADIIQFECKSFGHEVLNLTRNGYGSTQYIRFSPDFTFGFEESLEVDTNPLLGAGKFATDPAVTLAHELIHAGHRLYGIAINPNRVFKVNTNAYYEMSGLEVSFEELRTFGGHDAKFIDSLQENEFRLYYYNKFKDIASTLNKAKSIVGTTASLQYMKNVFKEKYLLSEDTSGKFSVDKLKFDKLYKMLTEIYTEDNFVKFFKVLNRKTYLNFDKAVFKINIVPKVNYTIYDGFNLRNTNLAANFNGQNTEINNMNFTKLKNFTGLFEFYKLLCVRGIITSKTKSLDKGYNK
Chain of Botulinum toxin type B endopeptidase (BoNT/B-LC) (P10844 2-441 limits assumed): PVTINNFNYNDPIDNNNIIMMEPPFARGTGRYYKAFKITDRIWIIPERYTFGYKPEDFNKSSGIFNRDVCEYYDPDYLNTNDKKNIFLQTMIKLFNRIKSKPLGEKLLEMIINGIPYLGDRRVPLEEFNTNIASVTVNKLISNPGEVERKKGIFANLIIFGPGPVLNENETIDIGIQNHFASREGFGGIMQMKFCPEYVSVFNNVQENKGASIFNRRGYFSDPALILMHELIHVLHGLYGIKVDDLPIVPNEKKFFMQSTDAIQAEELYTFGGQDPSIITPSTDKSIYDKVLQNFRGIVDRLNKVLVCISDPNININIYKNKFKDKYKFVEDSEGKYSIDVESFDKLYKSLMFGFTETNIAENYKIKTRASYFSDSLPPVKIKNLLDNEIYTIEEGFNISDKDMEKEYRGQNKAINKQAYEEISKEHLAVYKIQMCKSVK

COc1ccc(Cl)cc1NC(=O)COc1ncccc1C(=O)O [Compound 6a, 2-(2-((5-chloro-2-methoxyphenyl)amino)-2-oxoethoxy)nicotinic acid]
Survival rate % [1]: 60% | Survival rate % [2]: 20% | Inhibition rate % [3]: 0% | Inhibition rate % [4]: 80%

COc1ccc(Cl)cc1NC(=O)CS(=O)(=O)c1cc(C(=O)O)ccn1 [Compound 2a, 2-((2-((5-chloro-2-methoxyphenyl)amino)-2-oxoethyl)sulfonyl)isonicotinic acid]
Survival rate % [1]: 0% | Survival rate % [2]: 0% | Inhibition rate % [3]: 10% | Inhibition rate % [4]: 0%

CCOc1ccc(C(Nc2cccnc2)c2cc(Cl)c3cccnc3c2O)cc1 (centres unmarked) [CB7969312]
neutralization of toxicity of botulinum toxin type A to N2a cells (N2a cells): effectively neutralizes the toxicity

COc1ccc(Cl)cc1NC(=O)C[S+]([O-])c1ncccc1C(=O)O (centres unmarked) [Compound 2c, 2-((2-((5-chloro-2-methoxyphenyl)amino)-2-oxoethyl)sulfinyl)nicotinic acid]
Survival rate % [1]: 100% | Survival rate % [2]: 20% | Inhibition rate % [3]: 60.0% | Inhibition rate % [4]: 35%

O=C(CS(=O)(=O)c1ncccc1C(=O)O)Nc1cc(Cl)ccc1Oc1ccccc1 [Compound 2b, 2-((2-((5-chloro-2-phenoxyphenyl)amino)-2-oxoethyl)sulfonyl)nicotinic acid]
Survival rate % [1]: 0% | Survival rate % [2]: 0% | Inhibition rate % [3]: 5% | Inhibition rate % [4]: 0%
